Source: patent publication US20080319083A1, “MEDICINE FOR TRANSNASAL ADMINISTRATION” (priority 2006, published 2008)
Structures can show the parent of a compound that is named as a salt. Where two headings read alike, the source gives them in different places.

Tests used:
[1] = in vivo; design: species or system Wistar male rats; conditions: male, Wistar, rat, iv, 20 mg/kg
Description: Each rat was fixed in a face-up position on a fixed base, and the left and right jugular veins were exposed to collect blood. The rats underwent an operation of the airway and esophagus to adjust the physiological conditions to the same conditions as those of the intranasal administration test, and the above-prepared isotonic sodium chloride solution containing milnacipran hydrochloride (dosage 20 mg/kg, concentration 20 mg/mL) was administered from the right jugular vein, followed by collection of blood using an injection syringe previously treated with heparin with time in an amount of 200 μL per injection. […] The obtained data was analyzed based on the moment analysis to calculate the area under the plasma concentration-time curve (AUC), mean residence time (MRT), and mean absorption time (MAT). The cumulative absorption profile of milnacipran hydrochloride was calculated by the deconvolution method based on kinetic parameters determined from the intravenous administration test for an input function and based on plasma levels after intraduodenal or intranasal administration for an output function.

[2] = Evaluation of transfer of milnacipran hydrochloride to central nerve system, CSF concentration (Test Example 4); design: species or system Wistar male rats; conditions: in vivo
Description: As an indicator of transfer to the central nerve system, the concentration of a drug in a cerebrospinal fluid (CSF) was measured. The same operations and administrations as Test Example 3 (in vivo mucosal absorption experiment) were performed (n=3) for intravenous administration, intraduodenal administration, and intranasal administration. Then, blood was collected with time from the jugular vein, and after a given length of time, CSF was collected. An injection needle previously cut was adhered to a silicon tube to prepare an instrument, the other end of which was connected to a syringe, and after a given length of time following drug administration, a puncture was made ventrally from the top of the back of the head of a rat to a depth of 5 to 6 mm with the top of the injection needle. Then, the syringe was drawn to collect CSF in an amount of about 200 μL in the silicon tube.
The obtained data was analyzed based on the moment analysis to calculate the area under the cerebrospinal fluid concentration-time curve (AUCCSF). The AUCCSF represents an integrated value of concentrations of milnacipran in CFS, absorbed and transferred to the brain. Transfer of a drug from the general circulation to CSF is controlled by permeation through a blood-brain barrier and is greatly affected by the concentration of the drug in blood. Therefore, in order to consider the effect of permeation through a blood-brain barrier, brain transfer was evaluated by comparing ratios of the concentrations in CSF to the protein unbound drug concentration in plasma at the time of collection of CSF. Meanwhile, the brain transfer ratio (Kpu) was calculated from an area under the CSF concentration-time curve, an area under the plasma concentration-time curve, and a plasma protein unbinding ratio (following Formula 3). A significant test was performed based on the Tukey-Kramer multiple comparison. Note that AUCplasma represents an integrated value of the plasma concentrations of milnacipran absorbed and transferred to blood.

[3] = Transnasal administration experiment in closed system, plasma pharmacokinetics (Test Example 1)
Description: To 100 μL of plasma was added 300 μL of NH4Cl (pH 9), and the mixture was stirred for 30 seconds. Then, 500 μL of chloroform/2-isopropanol/n-heptane (60/14/26) was added, and the mixture was shaken for 2 minutes and centrifuged (4° C., 15,000 rpm, 5 min).
The chloroform layer (lower layer) obtained by centrifugation was transferred to another microtube, and the solvent was removed with flowing nitrogen. All the solvents were removed, and the extract was dissolved in 100 μL of a buffer used as a mobile phase for HPLC. Then, the solution was dispensed into a glass tube and injected to HPLC in an amount of 30 μL to measure the concentration of milnacipran hydrochloride.
The intravenous maximum plasma concentration (Cmax), maximum plasma concentration time (Tmax), area under the plasma concentration-time curve (AUC) and absorption ratio (F) were calculated. The area under the plasma concentration-time curve (AUC) was calculated from the trapezoid formula AUC represents an integrated value of the concentrations of plasma milnacipran absorbed and transferred to blood.
The obtained data was analyzed based on the nonlinear least-squares method program (algorithm: Damping Gauss-Newton method). AUC, MRT, MAT were derived from moment analysis. Meanwhile, the relative rate of the retention in the nasal cavity was evaluated by Formula (1) below.
A solution of urethane in isotonic sodium chloride solution (dosage 1.0 g/kg, 25 w/v %) was administered intraperitoneally to Wistar male rats, and the rats were anaesthetized: Each rat was fixed on a fixed base in a face-up position, and then the airway and esophagus surgeries was performed on the rat in according to the method of Hirai et. al (J. Pharm. Sci. 69:1411-1413 (1980)) to thereby expose the left and right jugular veins. The solution of milnacipran hydrochloride in isotonic sodium chloride solution was administered to the left the nasal cavity using a microsyringe, the top of which was attached to a silicone tube (dosage 20 mg/kg, concentration 100 mg/mL). Blood was corrected over time from the right jugular using a syringe previously treated with heparin. The blood samples were collected in an amount of 0.2 mL per injection, just 0 minute before transnasal administration, and 5, 10, 20, 30, 60, 90, 120, 180, 240, 300 and 360 minutes after the transnasal administration respectively. The collected blood samples were immediately centrifuged at 4° C. and 15,000 rpm (17,860 g) for 5 minutes, to thereby yield plasma samples (0.1 mL).

[4] = In vivo intranasal administration test of milnacipran hydrochloride (Test Example 2); design: species or system Wistar male rats
Description: Each rat was fixed in a face-up position on a fixed base and underwent an operation of the airway and esophagus to adjust the physiological conditions to the same conditions as those of the intravenous administration test, to thereby expose the left and right jugular veins. […] An injection syringe previously treated with heparin was used to collect blood from the right jugular vein over time.
The cumulative absorption profile of milnacipran hydrochloride was determined by the deconvolution method using kinetic parameters determined from the intravenous administration test as an input function and plasma levels after transnasal administration as an output function.

[5] = In vivo intravenous administration test of milnacipran hydrochloride (Test Example 2); design: species or system Wistar male rats
Source text: Each rat was fixed in a face-up position on a fixed base and underwent an operation of the airway and esophagus, to thereby expose the left and right jugular veins. […]

[6] = Transnasal administration experiment in opened system, plasma pharmacokinetics (Test Example 1); assay type: in vivo, Wistar male rats
Source text: AUC, MRT, MAT were derived from moment analysis. […] Each rat was fixed in a face-up position on a fixed base, and the right jugular vein was exposed to insert a catheter. After the nib of the catheter was indwelled in the atrium dextrum, the opened regions of the right jugular vein was sutured together using the medical suture thread with an attached needle (17 mm, angle ½ black nylon 5-0, Matsuda Sutures). After the sufficient recovery period, each rat was used for experiments. To the rats with the jugular vein catheterization, prepared by the above-described “1. […] Blood was collected via catheter over time using an injection syringe previously treated with heparin. […] After recovering from diethylether anesthesia, the rats was placed in gauges.

[7] = In vivo intranasal administration test of milnacipran hydrochloride (Test Example 3); design: species or system Wistar male rats; conditions: i.n. 20 mg/kg
Description: Each rat was fixed in a face-up position on a fixed base, and the left and right jugular veins were exposed to collect blood. […] The time of intranasal administration was defined as 0 minutes, and blood samples were collected using an injection syringe previously treated with heparin with time in an amount of 200 μL per injection.
The obtained data was analyzed based on the moment analysis to calculate the area under the plasma concentration-time curve (AUC), mean residence time (MRT), and mean absorption time (MAT). The cumulative absorption profile of milnacipran hydrochloride was calculated by the deconvolution method based on kinetic parameters determined from the intravenous administration test for an input function and based on plasma levels after intraduodenal or intranasal administration for an output function.

[8] = In vivo intraduodenal administration test of milnacipran hydrochloride (Test Example 3); design: species or system Wistar male rats; conditions: rat
Description: Each rat was fixed in a face-up position on a fixed base, and the left and right jugular veins were exposed to collect blood. The abdominal cavity was incised to take the duodenum out, and the downstream portion of the duodenum was ligated, followed by direct administration of the above-prepared isotonic sodium chloride solution containing milnacipran hydrochloride (dosage 20 mg/kg, concentration 20 mg/mL) to the duodenum from the upstream portion. The time of duodenum administration was defined as 0 minutes, and blood samples were collected using an injection syringe previously treated with heparin with time in an amount of 200 μL per injection. […] The obtained data was analyzed based on the moment analysis to calculate the area under the plasma concentration-time curve (AUC), mean residence time (MRT), and mean absorption time (MAT). The cumulative absorption profile of milnacipran hydrochloride was calculated by the deconvolution method based on kinetic parameters determined from the intravenous administration test for an input function and based on plasma levels after intraduodenal or intranasal administration for an output function.

[9] = male, Wistar, rat, iv, 20 mg/kg
[10] = male, Wistar, rat, in vivo, inhaled or intranasal, 20 mg/kg
[11] = male, Wistar, rat, in vivo, iv, 20 mg/kg
[12] = male, Wistar, in vivo, inhaled or intranasal, rat plasma, transnasal 20 mg/kg, opened system
[13] = male, Wistar, in vivo, inhaled or intranasal, rat plasma
[14] = male, Wistar, in vivo, 20 mg/kg

CCN(CC)C(=O)C1(c2ccccc2)CC1CN (racemic) [milnacipran hydrochloride, cis-(±)-2-(aminomethyl)-N,N-diethyl-1-phenyl-cyclopropanecarboxyamide]
AUC(0-inf) [1]: 9.89 µg·h/mL | MRT inf [1]: 1.34 h | Cmax ([2]; male, Wistar, inhaled or intranasal, rat CSF, i.n. 20 mg/kg, read-out: Cmax (maximum CSF concentration)): 4.02 µg/mL | Tmax ([2]; male, Wistar, inhaled or intranasal, rat CSF, i.n. 20 mg/kg, read-out: Tmax (time-to-maximum CSF concentration) (converted)): 0.333 h | AUC ([2]; male, Wistar, inhaled or intranasal, rat plasma, i.n. 20 mg/kg, read-out: AUCPlasma (converted)): 8.4 µg·h/mL | AUC ([2]; male, Wistar, rat, 20 mg/kg): 7 µg·h/mL | Cmax ([2]; male, Wistar, rat, 20 mg/kg): 1.01 µg/mL | Tmax ([2]; male, Wistar, rat, 20 mg/kg): 1 h | ratio of plasma concentration and CSF concentration ([2]; male, Wistar, rat, 20 mg/kg): significantly increased up to 30 minutes after administration | AUC [2, 9]: 9.89 µg·h/mL | AUCCSF [2, 9]: 13727.9 ng·min/mL | Cmax [2, 9]: 2.22 µg/mL | Tmax [2, 9]: 0.167 h | Kp ([2]; male, Wistar, rat, iv, 20 mg/kg, Kpu (brain transfer ratio)): 0.028 | CSF Cmax in intranasal administration relative to intraduodenal administration ([2]; rat, 20 mg/kg): four times larger than that in intraduodenal administration | CSF Cmax in intranasal administration relative to intravenous administration ([2]; rat, 20 mg/kg): twice larger than that in intravenous administration | ratio of plasma concentration and CSF concentration ([2]; rat, 20 mg/kg): almost constant | AUC(0-inf) [3, 10]: 8.4 µg·h/mL | Cmax [3, 10]: 5.12 µg/mL | Tmax [3, 10]: 0.333 h | MRT inf ([3]; male, Wistar, rat, in vivo, inhaled or intranasal, 20 mg/kg, MRT∞, rat plasma, transnasal 20 mg/kg, closed system): 1.88 h | MRT∞ ([3]; rat plasma, transnasal 20 mg/kg, closed system, listed as Control): 1.62 h | F∞ ([3]; rat, transnasal 20 mg/kg, closed system, vs i.v. 20 mg/kg): 84.9% | AUC(0-inf) ([4]; male, Wistar, in vivo, inhaled or intranasal, rat plasma, i.n. 10 mg/kg): 4.77 µg·h/mL | AUC(0-t) ([4]; male, Wistar, in vivo, inhaled or intranasal, rat plasma, i.n. 10 mg/kg, 0 to 7 hours, read-out: AUC0-7 (converted)): 4.38 µg·h/mL | Tmax ([4]; male, Wistar, in vivo, rat plasma, i.n. 10 mg/kg): 0.333 h | Cmax ([4]; male, Wistar, in vivo, rat plasma, i.n. 10 mg/kg, 50 mg/mL (Example 5)): 5.27 µg/mL | F0-7 ([4]; rat, i.n. 10 mg/kg vs i.v. 20 mg/kg, 0 to 7 hours): 90.41% | AUC(0-inf) [5, 11]: 9.68 µg·h/mL | AUC(0-t) [5, 11]: 9.43 µg·h/mL | Vd [5, 11]: 0.123 L | clearance [5, 11]: 2.69 mL/min | B ([5]; rat plasma, i.v. 20 mg/kg): 5580.51 ng/mL | t1/2α ([5]; rat plasma, i.v. 20 mg/kg): 6.221 min | t1/2β ([5]; rat plasma, i.v. 20 mg/kg): 1.0709 h | α ([5]; rat plasma, i.v. 20 mg/kg): 0.1114 min⁻¹ | β ([5]; rat plasma, i.v. 20 mg/kg): 0.01079 min⁻¹ | A ([5]; rat plasma, i.v. 20 mg/kg, two-compartment parameter): 7085.09 ng/mL | V1 ([5]; rat, i.v. 20 mg/kg): 67.74 mL | V2 ([5]; rat, i.v. 20 mg/kg): 55.64 mL | k10 ([5]; rat, i.v. 20 mg/kg): 0.0218 min⁻¹ | k12 ([5]; rat, i.v. 20 mg/kg): 0.0453 min⁻¹ | k21 ([5]; rat, i.v. 20 mg/kg): 0.0551 min⁻¹ | AUC(0-inf) [6, 12]: 6.12 µg·h/mL | Cmax [6, 12]: 3.04 µg/mL | MRT inf [6, 12]: 1.77 h | Tmax [6, 12]: 0.333 h | Fo/Fc (relative rate of the retention in the nasal cavity) ([6]; male, Wistar, rat, in vivo): 72.8% | F∞ ([6]; rat, transnasal 20 mg/kg, opened system): 61.9% | AUC(0-inf) [7, 13]: 8.4 µg·h/mL | Cmax [7, 13]: 5.12 µg/mL | MRT inf [7, 13]: 1.62 h | Tmax [7, 13]: 0.333 h | F∞ ([7]; rat): 84.9% | AUC(0-inf) [8, 14]: 7 µg·h/mL | Cmax [8, 14]: 3.07 µg/mL | MRT inf [8, 14]: 1.89 h | Tmax [8, 14]: 1 h | F∞ ([8]; i.d. 20 mg/kg): 70.8%
